# From article PMC6946680, “Modulation of brain cation-Cl^− cotransport via the SPAK kinase inhibitor ZT-1a” (Nature Communications, 2020)
# Several values for one entry are separate records, joined by “and”; a condition that tells them apart may be missing. Equal entries are not always repeated. Entries after “also recorded” stand apart in the source; their conditions may differ. Where two headings read alike, the source gives them in different places.
# Tests used:
# SPAK–WNK1 interaction = test system: T1, SPAK–WNK1 interaction; assay: SPAK antibody pull-down / co-immunoprecipitation of WNK1 from HEK-293 cell lysates; type: binding, human; details: for WNK1 co-immunoprecipitated with SPAK (band quantification): Fig S6
# T1 construct: endogenous in cells; host or cells: HEK-293
# Procedure: Supplemental Fig. 6 Evidence that SPAK associates with WNK1, and interaction is disrupted by ZT-1a and its analogs. Non-transfected HEK293 cell lysates were incubated with the RFQV peptide […]
# ZT-1a for 30 min on ice and subjected to SPAK antibody immunoprecipitation. Immunoprecipitates were subjected to immunoblot probed with antibody to total WNK1 and antibody to total SPAK. Left panels: representative immunoblots. Right panels, summarized data quantitated by densitometry (n=3, means ± SEM; **,
# [1] = test system: KCC3 Thr991Ala/Thr1048Ala; assay: 86Rb+ uptake assay for KCC3 double mutant in HEK-293 cells; type: cell-based, human; details: for 86Rb+ uptake: Fig 3a, T991A/T1048A + 1a (10 µM), replicates
# Procedure: ^86Rb^+ flux assays have been utilized extensively as a reliable measurement of cation chloride cotransporter activity[51]–[54].
# Thirty-six hours post transfection, cells were exposed for 30 min to either control isotonic conditions or hypotonic low [Cl^−] conditions (to activate the SPAK/OSR1 pathway), and then treated for an additional 30 min in the same conditions with the indicated ZT-1a concentrations in the presence of 1 mM ouabain and 0.1 mM bumetanide. Ten-minute ^86Rb^+ uptake values were quantified by scintillation counting, normalized per mg protein for each condition, and plotted for both isotonic and hypotonic conditions. ***p < 0.001; **p < 0.01; *p < 0.05; ns—nonsignificant [by one-way ANOVA with post hoc testing (n = 6, error bars represent the mean ± SEM)]. b ^86Rb^+ uptake assays in the presence of ZT-1a measure transport activity of NKCC1. […] Thirty-six hours post transfection, cells were exposed for 30 min to either control isotonic conditions or hypotonic low [Cl^−] conditions (to activate the SPAK/OSR1 pathway), and then treated in the same conditions for an additional 30 min with 10 µM ZT-1a or 0.1 mM bumetanide (Bum) in the presence of 1 mM ouabain (Na^+/K^+-ATPase inhibitor). ^86Rb^+ uptake was allowed to proceed for 10 min and was then quantified by scintillation counting. ^86Rb^+ uptake CPMs were normalized per mg protein and plotted for both isotonic and hypotonic conditions. […] Ten-minute ^86Rb^+ uptake values were quantified by scintillation counting, normalized per mg protein for each condition, and plotted for both isotonic and hypotonic conditions. ***p < 0.001; **p < 0.01; *p < 0.05; ns—nonsignificant [by one-way ANOVA with post hoc testing (n = 6, error bars represent the mean ± SEM)].
# This stimulating medium was then removed and replaced with isotonic medium containing inhibitors plus 2 µCi/ml ^86Rb^+. […] Washed cells were lysed in 300 µl of ice-cold lysis buffer and ^86Rb^+ uptake was quantitated by liquid scintillation counting (PerkinElmer).
# [2] = ZT-1a pharmacokinetic properties in naive mice; type: in vivo, ICR mice; details: mouse, plasma; for MRT inf: read-out: MRT(0-∞)
# Procedure: 1 Supplemental Table 3. ZT-1a pharmacokinetic (PK) properties in naïve mice.
# 2 ZT-1a pharmacokinetics were determined following a single 5 mg/kg intravenous (IV) dose and a single 10 mg/kg oral (PO) dose in
# 3 ICR mice (N = 3 at each time point).
# Samples were subjected to drug assay by LC-MS/MS, and data were analyzed by WinNonlin V6.3. Tmax =
# 5 time of maximum plasma concentration, Cmax = maximum plasma concentration, AUC = area under the curve (measure of exposure),
# 6 T1/2 = half life, CL = plasma clearance, Vz = volume of distribution, MRT, mean residence time; F = oral bioavailability.
# SPAK pSer373 = assay: Choroid plexus SPAK/OSR1 immunoblot in rat post-hemorrhagic hydrocephalus (IVH) model; type: in vivo
# NKCC1 pThr203/207/212 = assay: Choroid plexus NKCC1 immunoblot in rat IVH model; type: in vivo
# [3] = test system: mouse model of ischemic stroke (tMCAO); assay: Corner test after tMCAO; type: in vivo; details: for Corner test (Unilateral turns): Fig 7c, individual mice #1-#7
# pGSK-3α/β = assay: Immunoblot of phospho-GSK-3α/β in ischemic mouse brain; type: in vivo; details: for pGSK-3αβ/GAPDH (fold veh-CL): Cytosol; for pGSK-3αβ/GAPDH (fold veh-CL) / pGSK-3αβ/Na K pump (fold veh-CL): Fig S4d; for pGSK-3αβ/Na K pump (fold veh-CL): Membrane
# Text: Cytosol and crude membrane protein
# Expressions of Na+-K+ ATPase
# respectively. d Densitometric analyses of immunoblots.
# AMPK (hum) = assay: Kinase profiling panel; type: biochemical, human
# Procedure: Supplementary Table 2. ZT-1a kinase profiling data6.
# ZT-1a was tested at 10 and 1 µM against a panel of 140 recombinant kinases in an enzymatic
# activity-based assay performed by the International Centre for Kinase Profiling in the MRC
# Protein Phosphorylation and Ubiquitylation Unit. Values represent % residual kinase activity
# pKCC3 pThr991/pThr1048 = assay: Immunoblot of pKCC3 in ischemic mouse brain membrane fractions; details: for KCC3 / Na-K pumb / pThr991 / KCC3 / pThr991 / Na-K pumb / pThr1048 / KCC3 / pThr1048 / Na-K pumb: Fig 8, individual samples
# [4] = rat CPe 48 h post IVH + 1a, replicates
# [5] = rat, ICV ZT-1a, 48 h post IVH, n = 3
compound,measurement,setting,value
"Cc1cc(C(C#N)c2ccc(Cl)cc2)c(Cl)cc1NC(=O)c1cc(Cl)ccc1O (stereo not shown) [ZT-1a, 5-chloro-N-(5-chloro-4-((4-chlorophenyl)(cyano)methyl)-2-methylphenyl)-2-hydroxybenzamide]",WNK1 co-immunoprecipitated with SPAK (band quantification),SPAK–WNK1 interaction; 10 uM,0.445 and 0.402 and 0.4282 and 0.39
same,WNK1 co-immunoprecipitated with SPAK (band quantification),SPAK–WNK1 interaction; 30 uM,0.176 and 0.186 and 0.196
same,WNK1 co-immunoprecipitated with SPAK (band quantification),SPAK–WNK1 interaction; 100 uM,0.121 and 0.086 and 0.0911 and 0.105
same,WNK1 co-immunoprecipitated with SPAK (band quantification),SPAK–WNK1 interaction; 300 uM,0.066 and 0.072 and 0.068 and 0.058
same,WNK1 co-immunoprecipitated with SPAK (band quantification),SPAK–WNK1 interaction; 1000 uM,0.048 and 0.027 and 0.0332 and 0.031
same,co-immunoprecipitation of WNK1 with SPAK,"SPAK–WNK1 interaction; HEK-293 cell lysates, absence or presence of competitor peptide",abolished by ZT-1a more potently than by STOCK1S-50699 or by Closantel
same,activity of KCC3 double mutant Thr991Ala/Thr1048Ala,"[1]; 86Rb+ flux, 10 µM ZT-1a",failed to increase activity
same,86Rb+ uptake,[1]; Hypotonic low Cl-,20886.3 and 22005.7 and 21031.7 and 19121.7 and 18316.2 and 19001.7
same,86Rb+ uptake,[1]; Isotonic control,27112.3 and 26091.1 and 31837.7 and 30881.4 and 28673.6 and 29768.2
same,AUC,"[2]; ICR, intravenous, 5 mg/kg, naive mice",2340 ng·h/mL
same,half-life,"[2]; ICR, intravenous, 5 mg/kg, naive mice, read-out: T1/2 (plasma half-life) (converted)",1.8 h
same,half-life,"[2]; ICR, iv, 5 mg/kg, IV 5 mg/kg, ICR mice, read-out: t1/2 (converted)",1.8 h
same,bioavailability,"[2]; ICR, oral, 10 mg/kg, naive mice",2.2%
same,half-life,"[2]; ICR, po, 10 mg/kg, PO 10 mg/kg, ICR mice, read-out: t1/2 (converted)",2.6 h
same,AUC(0-inf),"[2]; IV 5 mg/kg, ICR mice",2350 ng·h/mL
same,AUC(0-t),"[2]; IV 5 mg/kg, ICR mice",2340 ng·h/mL
same,C0,"[2]; IV 5 mg/kg, ICR mice",14900 ng/mL
same,Cmax,"[2]; IV 5 mg/kg, ICR mice",6910 ng/mL
same,Tmax,"[2]; IV 5 mg/kg, ICR mice",0.08 h
same,clearance,"[2]; IV 5 mg/kg, ICR mice",35.5 mL/min/kg
same,MRT inf,"[2]; IV 5 mg/kg, ICR mice",0.45 h
same,Vd,"[2]; IV 5 mg/kg, ICR mice, read-out: Vz",0.948 L/kg
same,AUC(0-inf),"[2]; PO 10 mg/kg, ICR mice",105 ng·h/mL
same,AUC(0-t),"[2]; PO 10 mg/kg, ICR mice",97.3 ng·h/mL
same,Cmax,"[2]; PO 10 mg/kg, ICR mice",94 ng/mL
same,Tmax,"[2]; PO 10 mg/kg, ICR mice",0.25 h
same,bioavailability,"[2]; PO 10 mg/kg, ICR mice",2.2%
same,MRT inf,"[2]; PO 10 mg/kg, ICR mice",3.3 h
same,SPAK / Actin,SPAK pSer373; [4],2.39 and 2.21 and 2.2 and 2.51 and 2.16 and 2.37
same,SPAK pSer373 / Actin,SPAK pSer373; [4],0.69 and 0.85 and 1.13 and 0.73 and 0.89 and 1.07
same,reduction of IVH-induced expression of pSPAK in CPe,SPAK pSer373; [5],55 ± 3.6%
same,NKCC1 pThr203/207/212 / Actin,NKCC1 pThr203/207/212; [4],1.03 and 0.7 and 0.5 and 0.9 and 0.81 and 0.55
same,reduction of IVH-induced expression of pNKCC1 in CPe,NKCC1 pThr203/207/212; [5],69 ± 4.3%
same,Corner test (Unilateral turns),[3]; Day 1,9 Unilateral turns (2×) and 10 Unilateral turns and 6 Unilateral turns (4×)
same,Corner test (Unilateral turns),[3]; Day 3,6 Unilateral turns (2×) and 10 Unilateral turns and 7 Unilateral turns (3×) and 5 Unilateral turns
same,Corner test (Unilateral turns),[3]; Day 5,6 Unilateral turns (5×) and 5 Unilateral turns (2×)
same,Corner test (Unilateral turns),[3]; Day 7,6 Unilateral turns (4×) and 5 Unilateral turns (3×)
same,Corner test (Unilateral turns),[3]; Day -1 (baseline),5 Unilateral turns (5×) and 6 Unilateral turns (2×)
same,"corner test, turn preference/asymmetries","[3]; ZT-1a 5.0 mg/kg, days 1–7 post stroke",absence of asymmetries by day 7 post stroke
same,pGSK-3αβ/GAPDH (fold veh-CL),pGSK-3α/β; CL,1.03 fold veh-CL and 0.85 fold veh-CL and 1.10 fold veh-CL
same,pGSK-3αβ/GAPDH (fold veh-CL),pGSK-3α/β; IL,1.40 fold veh-CL and 1.29 fold veh-CL and 1.07 fold veh-CL
same,pGSK-3αβ/Na K pump (fold veh-CL),pGSK-3α/β; CL,1.04 fold veh-CL and 0.96 fold veh-CL and 1.12 fold veh-CL
same,pGSK-3αβ/Na K pump (fold veh-CL),pGSK-3α/β; IL,0.94 fold veh-CL and 0.88 fold veh-CL and 0.90 fold veh-CL
same,GSK-3β (p-GSK-3alpha/beta) phosphorylation in ischemic brain,"pGSK-3α/β; ZT-1a-treated ischemic mouse brain, 5.0 mg/kg i.p., 24 h post reperfusion, 5 mg/kg",not inhibited; also recorded: no marked inhibition
same,% residual kinase activity,AMPK (hum); 1 µM,126±4%
same,% residual kinase activity,AMPK (hum); 10 µM,108±4%
same,KCC3 / Na-K pumb,pKCC3 pThr991/pThr1048; CL hemisphere,1.336 and 1.197 and 1.267 and 1.158 and 1.265 and 1.361
same,pThr991 / KCC3,pKCC3 pThr991/pThr1048; CL hemisphere,1.218 and 1.115 and 1.236 and 1.366 and 1.064 and 1.128
same,pThr991 / Na-K pumb,pKCC3 pThr991/pThr1048; CL hemisphere,1.627 and 1.334 and 1.565 and 1.429 and 1.509 and 1.618
same,pThr1048 / KCC3,pKCC3 pThr991/pThr1048; CL hemisphere,1.138 and 0.971 and 0.993 and 1.217 and 1.116 and 0.937
same,pThr1048 / Na-K pumb,pKCC3 pThr991/pThr1048; CL hemisphere,1.52 and 1.162 and 1.258 and 1.37 and 1.22 and 1.531
same,KCC3 / Na-K pumb,pKCC3 pThr991/pThr1048; IL hemisphere,1.177 and 1.337 and 1.176 and 1.207 and 1.288 and 1.143
same,pThr991 / KCC3,pKCC3 pThr991/pThr1048; IL hemisphere,0.804 and 0.867 and 0.759 and 0.638 and 0.69 and 0.743
same,pThr991 / Na-K pumb,pKCC3 pThr991/pThr1048; IL hemisphere,0.946 and 0.897 and 1.023 and 0.942 and 0.889 and 0.849
same,pThr1048 / KCC3,pKCC3 pThr991/pThr1048; IL hemisphere,0.646 and 0.719 and 0.618 and 0.673 and 0.737 and 0.686
same,pThr1048 / Na-K pumb,pKCC3 pThr991/pThr1048; IL hemisphere,0.76 and 0.987 and 0.854 and 0.792 and 0.949 and 0.785
same,reduction of ischemia-induced elevation of pKCC3,pKCC3 pThr991/pThr1048; compared with vehicle-control mice,30%
same,ischemia-induced increase of pKCC3,"pKCC3 pThr991/pThr1048; post-stroke ZT-1a 5 mg/kg, 24 h reperfusion",prevented
